In patent EP1038880B1, “Androstanes and pregnanes for allosteric modulation of GABA receptor” (priority 1994, dated 1995):

Key:
[1] = Rotorod test (general CNS depression potential); conditions: mouse, in vivo, ip
Protocol: The anticonvulsant tests are similar to that described above. […] The number of animals with tonic and/or clonic convulsions was recorded. In the maximal electroshock test, 50 mA of current at 60 Hz was delivered through corneal electrodes for 200 msec to induce tonic seizure. The ability of compounds to abolish the tonic component was defined as the endpoint. General CNS depression potential was determined by a rotorod test 10 minutes after the injection of compounds where the number of mice staying on a rotating (6 rpm) rod for 1 minute in one of the three trials was determined. […] Table 7. Anticonvulsant Activity of Exemplified Neuroactive Steroids and those of Selected Clinically Useful Anticonvulsants in Mice

Sprague-Dawley rats = assay: Geller-Seifter conflict test; format: in vivo; conditions: subcutaneous administration (Figure 10)
Description: This animal model of human anxiety utilizes a conditioned state of conflict in rats to ascertain the anxiolytic properties of drugs. […] The first includes bar pressing under a variable […] schedule without punishment. The second component is a fixed ratio schedule with each bar press resulting in a positive reinforcement and a punishment. The punished component produces a state of conflict within the animal. […] An anxiolytic response would increase the punished responding without affecting the unpunished responding.
Rats were housed individually under a 12-hour light-dark cycle with lights on from 0700-1900.
Rats were trained in test chambers (Coulbourn instruments) with a lever mounted in one wall, a small dipper that delivered the 0.1-mL milk reward (1 part Eagle condensed : milk 2 parts water), and a metal grid floor through which the foot-shock punishment was administered. A DEC PDP 11/73 minicomputer nmning SKED (State Systems) was used for programming and recording.
Rates initially learned to respond on a continuous reinforcement schedule and progressed rapidly to 30-sec, 1-min, and 2-min variable interval (VI) schedules. On the continuous reinforcement schedule, rats received milk reward following every lever press; on the VI schedules, milk rewards were available at infrequent and variable intervals, eventually at an average of once every 2 min. […] During conflict periods, which were signalled by the presentation of a light and a tone, the continuous reinforcement schedule was again in force and each lever press delivered both a milk reward and a brief ([…]) foot-shock Shock intensity was 0.2 mA initially, and.was increased daily in increments of 0.02 mA in order to gradually suppress lever pressing to 5 responses or less per conflict period. […] Drug-induced increases in the rate of punished responses were taken as an index of antianxiety activity, while decreases in the rate of unpunished responses were taken as an index of response depression or sedation.

[2] = tested on: N.I.H. Swiss-Webster mice; assay: Light/dark transition test; format: in vivo; conditions: IP, 10 min test, vs control, Dunnett's t-test (Fig. 8)
Protocol: Male N.I.H. Swiss-Webster mice (Harlan, Harlan, Indianapolis, IN) weighing 15-20 g were housed four per cage in polyethylene cages with sawdust bedding. The colony room was environmentally controlled (22°C) with a hr light/dark cycle (0600-1800hr). Food and water were available ad libitum, except during testing. The experiments were run from 0700-1500 hr and groups were counterbalanced for time of day effects. Mice were only administered drug or vehicle once.
The apparatus included two 2-compartment automated test chambers (Model RXYZCM16, Omnitech Electronics, Columbus, OH). The open compartment was connected to the enclosed compartment via a 7.5 × 7.5 cm passageway. The open compartment was brightly lit using a 200 W incandescent light bulb. The experimental room was kept dark. Interruptions of the infrared beams in either chamber were automatically recorded by being linked to a computer through a Digiscan Analyzer (Omnitech and the data was analyzed using the Integrated Lab Animal Monitoring System (Omnitech Electronics). N.IH. Swiss-Webster mice were administered vehicle or test drug intraperiotoneally (IP),10 min later they were placed in the center of the lit compartment. The number of transitions between the lit and dark chambers, total activity in the lit chamber and the time spent in the lit chamber were measured during a 10 min test period.

[3] = tested on: N.I.H. Swiss-Webster mice; assay: Elevated plus-maze; format: in vivo; conditions: 5 min test, ten minutes after injection (Fig. 9A)
Description: The theoretical basis for the elevated plus-maze test is similar to that of the light/dark transition test. […] The apparatus consists of two open-arms and two enclosed-arms. The elevated plus-maze test allows for two measures of anxiety, the number of entries into the open-arms and the time spent on the open-arms, both expressed as a percentage of the total number of entries and time spent in/on both the open-arms and enclosed-arms.
Male N.LH. Swiss-Webster mice (Harlan, Indianapolis, IN) weighing 15-20 g were housed four per cage in polyethylene cages with sawdust bedding. The colony mom was environmentally controlled (22°C) with a 12^- hr light/dark cycle (0600-1800 hr). Food and water were available ad libitum, except during testing. The experiments were run from 0700-1500 hr and groups were counterbalance for time of day effects. Mice were only administered drug or vehicle once.
The apparatus included two open arms perpendicular to two enclosed arms elevated 50 cm from the floor. Each arm was 50 cm long and the walls of the enclosed arms were 40 cm tall. The maze was made completely of black plexiglass. Incandescent 200 W light bulbs were above each of the open arms to produce a strong contrast between the open arms and the enclosed arms.
Ten minutes after an injection, the N.I.H. Swiss-Webster mice were placed in the center of the plus-maze facing an open arm. During the 5 min test period, the number of entries onto the open arms and the enclosed arms, and the time spent in the open arms and enclosed arms were measured. All four paws had to be within an arm for the dependent variable to be measured. Therefore, the time spent in the center of the maze is not counted, so the total time spent in the open arms and the enclosed arms may not equal 5 min.

Molecule C[C@]12CC[C@@H](O)C[C@@H]1CC[C@@H]1[C@@H]2CC[C@]2(C)[C@@H](C(=O)CO)CC[C@@H]12 [3α,21-dihydroxy-5α-pregnan-20-one] has an ED50 at 10 min [1] of 22.9 mg/kg.
For CC(=O)[C@H]1CC[C@H]2[C@@H]3CC[C@H]4C[C@H](O)CC[C@]4(C)[C@H]3CC[C@]12C [3α-Hydroxy-5α-pregnan-20-one, 3α-hydroxy-5α-pregnan-20-one], the “dose of peak effect on rate of punished responses” value (Sprague-Dawley rats) was 4.4 mg/kg, the “number of transitions between the dark box and the light box, in words” value [2] was “significantly increased” and the “dose producing significant increase in entries into the open-arms” value [3] was 20 mg/kg.
